Experimental data published in US20140179664A1, “Heterocyclyl Pyrimidine Analogues As JAK Inhibitors” (Cellzome Limited, priority 2011, published 2014).

Target: T1, JAK3 (Homo sapiens, UniProt P52333)
T1 construct: endogenous in cells; host or cells: Molt4 (ATCC CRL-1582) and Ramos (ATCC CRL-1596), mixed lysate 1:2
T1 sequence (P52333 1-1124): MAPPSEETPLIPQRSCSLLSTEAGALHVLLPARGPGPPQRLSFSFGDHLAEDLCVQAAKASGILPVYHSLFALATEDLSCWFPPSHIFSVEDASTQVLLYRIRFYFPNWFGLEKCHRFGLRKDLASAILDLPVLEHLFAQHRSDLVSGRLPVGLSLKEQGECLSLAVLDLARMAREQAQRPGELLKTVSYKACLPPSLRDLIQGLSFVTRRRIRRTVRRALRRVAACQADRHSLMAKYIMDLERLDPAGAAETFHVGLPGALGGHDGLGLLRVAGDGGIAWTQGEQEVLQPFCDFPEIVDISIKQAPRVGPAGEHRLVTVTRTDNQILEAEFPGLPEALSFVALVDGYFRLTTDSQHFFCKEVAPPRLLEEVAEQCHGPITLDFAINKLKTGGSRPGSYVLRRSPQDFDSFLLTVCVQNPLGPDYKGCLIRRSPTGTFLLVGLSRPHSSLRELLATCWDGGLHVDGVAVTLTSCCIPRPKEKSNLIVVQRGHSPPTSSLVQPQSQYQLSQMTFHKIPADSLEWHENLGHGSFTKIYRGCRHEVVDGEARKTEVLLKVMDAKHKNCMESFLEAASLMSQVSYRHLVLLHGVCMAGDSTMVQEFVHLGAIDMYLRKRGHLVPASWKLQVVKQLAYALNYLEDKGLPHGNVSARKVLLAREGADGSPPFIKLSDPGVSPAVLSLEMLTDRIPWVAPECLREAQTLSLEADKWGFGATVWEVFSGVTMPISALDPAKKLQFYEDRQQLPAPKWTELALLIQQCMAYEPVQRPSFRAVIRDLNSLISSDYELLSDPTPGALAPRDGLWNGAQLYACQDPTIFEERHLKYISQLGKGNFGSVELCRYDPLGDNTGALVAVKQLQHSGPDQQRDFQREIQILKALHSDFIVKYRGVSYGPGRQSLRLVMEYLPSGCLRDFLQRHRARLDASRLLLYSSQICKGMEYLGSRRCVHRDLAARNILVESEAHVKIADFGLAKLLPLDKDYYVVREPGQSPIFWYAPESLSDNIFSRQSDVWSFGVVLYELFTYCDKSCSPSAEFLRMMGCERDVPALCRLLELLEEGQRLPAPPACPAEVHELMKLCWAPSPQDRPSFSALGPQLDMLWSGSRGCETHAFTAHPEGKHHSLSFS
Experiment: Kinobeads assay, JAK3
Format: binding
Settings: mixed Molt4/Ramos lysate, read-out: Inhibition values (IC50) JAK3
Procedure: The compounds of the present invention as described in the previous examples were tested in a Kinobeads™ assay as described for ZAP-70 (WO-A 2007/137867). Briefly, test compounds (at various concentrations) and the affinity matrix with the immobilized aminopyrido-pyrimidine ligand 24 were added to cell lysate aliquots and allowed to bind to the proteins in the lysate sample. After the incubation time the beads with captured proteins were separated from the lysate. Bound proteins were then eluted and the presence of JAK1, JAK2, JAK3 and TYK2 was detected and quantified using specific antibodies in a dot blot procedure and the Odyssey infrared detection system. Dose response curves for individual kinases were generated and IC50 values calculated. Kinobeads™ assays for ZAP-70 (WO-A 2007/137867) and for kinase selectivity profiling (WO-A 2006/134056) have been previously described.
The affinity matrix was washed two times with 15 mL of lx DP buffer containing 0.2% NP40 (IGEPAL® CA-630, Sigma, #13021) and then resuspended in 1×DP buffer containing 0.2% NP40 (3% beads slurry).
5×DP buffer: 250 mM Tris-HCl pH 7.4, 25% Glycerol, 7.5 mM MgCl2, 750 mM NaCl, 5 mM Na3VO4; filter the 5×DP buffer through a 0.22 μm filter and store in aliquots at −80° C. The 5×DP buffer is diluted with H2O to 1×DP buffer containing 1 mM DTT and 25 mM NaF.
Stock solutions of test compounds were prepared in DMSO. In a 96 well plate […] solution of diluted test compounds at 5 mM in DMSO were prepared. Starting with this solution a 1:3 dilution series (9 steps) was prepared. For control experiments (no test compound) a buffer containing 2% DMSO was used.
Molt4 cells (ATCC catalogue number CRL-1582) and Ramos cells (ATCC catalogue number CRL-1596) were grown in 1 L Spinner flasks (Integra Biosciences, #182101) in suspension in RPMI 1640 medium (Invitrogen, #21875-034) supplemented with 10% Fetal Bovine Serum (Invitrogen) at a density between 0.15×10^6 and 1.2×10^6 cells/mL. Cells were harvested by centrifugation, washed once with 1×PBS buffer (Invitrogen, #14190-094) and cell pellets were frozen in liquid nitrogen and subsequently stored at −80° C. Cells were homogenized in a Potter S homogenizer in lysis buffer: 50 mM Tris-HCl, 0.8% NP40, 5% glycerol, 150 mM NaCl, 1.5 mM MgCl2, 25 mM NaF, 1 mM sodium vanadate, 1 mM DTT, pH 7.5. One complete EDTA-free tablet (protease inhibitor cocktail, Roche Diagnostics, 1873580) per 25 mL buffer was added. The material was dounced 10 times using a mechanized POTTER S, transferred to 50 mL falcon tubes, incubated for 30 minutes on ice and spun down for 10 minutes at 20,000 g at 4° C. (10,000 rpm in Sorvall SLA600, precooled). The supernatant was transferred to an ultracentrifuge (UZ)-polycarbonate tube (Beckmann, 355654) and spun for 1 hour at 100.000 g at 4° C. (33.500 rpm in Ti50.2, precooled). The supernatant was transferred again to a fresh 50 mL falcon tube, the protein concentration was determined by a Bradford assay (BioRad) and samples containing 50 mg of protein per aliquot were prepared. The samples were immediately used for experiments or frozen in liquid nitrogen and stored frozen at −80° C.
Cell lysate (approximately 50 mg protein per plate) was thawed in a water bath at room temperature and then stored on ice. To the thawed cell lysate 1×DP 0.8% NP40 buffer containing protease inhibitors (1 tablet for 25 mL buffer; EDTA-free protease inhibitor cocktail; Roche Diagnostics 1873580) was added in order to reach a final protein concentration of 10 mg/mL total protein. The diluted cell lysate was stored on ice. Mixed Molt4/Ramos lysate was prepared by combining one volume of Molt4 lysate and two volumes of Ramos lysate (ratio 1:2).
To a 96 well filter plate (Multiscreen HTS, BV Filter Plates, Millipore #MSBVN1250) were added per well: 100 μL affinity matrix (3% beads slurry), […], of compound solution, and 50 μL of diluted lysate. […]

IC50 [nM]	SMILES
< 100	Cc1cnc(Nc2cnn(CC(=O)N(C)C)c2)nc1N[C@H](CO)c1ccccc1 [Compound 134]
< 100	CN1CCC(n2cc(Nc3ncc(Cl)c(N[C@H](CO)c4ccccc4)n3)cn2)C1=O (stereo partly drawn) [Compound 135]
100 to 1000	Cn1cc(Nc2ncc(Cl)c(N[C@H](CO)c3cccc(-c4cnn(C)c4)c3)n2)cn1 [Compound 136]
100 to 1000	Cn1cc(Nc2ncc(Cl)c(N[C@H](CO)c3cc(F)cc(-c4cnn(C)c4)c3)n2)cn1 [Compound 137]
< 100	Cn1cc(Nc2ncc(Cl)c(N[C@H](CO)c3cccc(N4CCOCC4=O)c3)n2)cn1 [Compound 138]
< 100	Cn1cc(Nc2ncc(Cl)c(N[C@H](CO)c3cc(F)ccc3F)n2)cn1 [Compound 139]
< 100	NC(=O)Cn1cc(Nc2ncc(Cl)c(N[C@H](CO)c3cc(F)ccc3F)n2)cn1 [Compound 140]
< 100	CNC(=O)Cn1cc(Nc2ncc(Cl)c(N[C@H](CO)c3cc(F)ccc3F)n2)cn1 [Compound 141]
< 100	Cn1cc(Nc2ncc(Cl)c(N[C@H](CO)c3cc(F)cc(F)c3)n2)cn1 [Compound 142]
< 100	OCCn1cc(Nc2ncc(Cl)c(N[C@H](CO)c3cc(F)cc(F)c3)n2)cn1 [Compound 143]
< 100	NC(=O)Cn1cc(Nc2ncc(Cl)c(N[C@H](CO)c3cc(F)cc(F)c3)n2)cn1 [Compound 144]
< 100	CNC(=O)Cn1cc(Nc2ncc(Cl)c(N[C@H](CO)c3cc(F)cc(F)c3)n2)cn1 [Compound 145]
< 100	Cn1cc(Nc2ncc(F)c(N[C@H](CO)c3cc(F)ccc3F)n2)cn1 [Compound 146]
< 100	OCCn1cc(Nc2ncc(F)c(N[C@H](CO)c3cc(F)ccc3F)n2)cn1 [Compound 147]
< 100	CNC(=O)Cn1cc(Nc2ncc(F)c(N[C@H](CO)c3cc(F)ccc3F)n2)cn1 [Compound 148]
100 to 1000	Cc1cnc(Nc2cnn(C)c2)nc1N[C@H](CO)c1cccc(-c2cnn(C)c2)c1 [Compound 149]
100 to 1000	Cn1cc(Nc2ncc(F)c(N[C@H](CO)c3cc(F)cc(-c4cnn(C)c4)c3)n2)cn1 [Compound 150]

IC50 [nM]	SMILES
100 to 1000	Cn1cc(-c2cccc([C@@H](CO)Nc3nc(Nc4cnn(CCO)c4)ncc3Cl)c2)cn1 [Compound 151]
< 100	Cn1cc(-c2cc(F)cc([C@@H](CO)Nc3nc(Nc4cnn(CCO)c4)ncc3Cl)c2)cn1 [Compound 152]
100 to 1000	Cn1cc(-c2cc(F)cc([C@@H](CO)Nc3nc(Nc4cnn(CCO)c4)ncc3F)c2)cn1 [Compound 153]
< 100	CNC(=O)Cn1cc(Nc2ncc(Cl)c(N[C@H](CO)c3cccc(-c4cnn(C)c4)c3)n2)cn1 [Compound 154]
100 to 1000	CNC(=O)Cn1cc(Nc2ncc(F)c(N[C@H](CO)c3cccc(-c4cnn(C)c4)c3)n2)cn1 [Compound 155]
< 100	CNC(=O)Cn1cc(Nc2ncc(Cl)c(N[C@H](CO)c3cc(F)cc(-c4cnn(C)c4)c3)n2)cn1 [Compound 156]
100 to 1000	CNC(=O)Cn1cc(Nc2ncc(F)c(N[C@H](CO)c3cc(F)cc(-c4cnn(C)c4)c3)n2)cn1 [Compound 157]
< 100	Cn1cc(Nc2ncc(F)c(N[C@H](CO)c3cc(F)cc(F)c3)n2)cn1 [Compound 158]
< 100	OCCn1cc(Nc2ncc(F)c(N[C@H](CO)c3cc(F)cc(F)c3)n2)cn1 [Compound 159]
< 100	NC(=O)Cn1cc(Nc2ncc(F)c(N[C@H](CO)c3cc(F)cc(F)c3)n2)cn1 [Compound 160]
< 100	CNC(=O)Cn1cc(Nc2ncc(F)c(N[C@H](CO)c3cc(F)cc(F)c3)n2)cn1 [Compound 161]
< 100	Cn1cc(Nc2ncc(Cl)c(N[C@H](CO)c3cccc(N4CCOCC4=O)c3F)n2)cn1 [Compound 162]
< 100	Cc1cnc(Nc2cnn(C)c2)nc1N[C@H](CO)c1cc(F)ccc1F [Compound 163]
100 to 1000	Cc1cnc(Nc2cnn(C)c2)nc1N[C@H](CO)c1cc(F)cc(F)c1 [Compound 164]
< 100	OC[C@@H](Nc1nc(Nc2cnn(CC(F)F)c2)ncc1Cl)c1ccccc1F [Compound 165]
100 to 1000	Cc1cnc(Nc2cnn(CC(F)F)c2)nc1N[C@H](CO)c1cc(F)ccc1F [Compound 166]
